This is an account of results in patent US8263598B2, “Substituted sulfonamide compounds” (Gruenenthal GmbH, priority 2008, dated 2012).

Molecules are shown by their SMILES.

The term inhibition denotes the drop in the measured response relative to a control, in per cent.

Experiment [1] concerns the target T1, B1R receptor of rats (rB1R) (Rattus norvegicus, UniProt P97583).
T1 construct: host or cells: CHO K1 cells
T1 sequence (P97583 1-337): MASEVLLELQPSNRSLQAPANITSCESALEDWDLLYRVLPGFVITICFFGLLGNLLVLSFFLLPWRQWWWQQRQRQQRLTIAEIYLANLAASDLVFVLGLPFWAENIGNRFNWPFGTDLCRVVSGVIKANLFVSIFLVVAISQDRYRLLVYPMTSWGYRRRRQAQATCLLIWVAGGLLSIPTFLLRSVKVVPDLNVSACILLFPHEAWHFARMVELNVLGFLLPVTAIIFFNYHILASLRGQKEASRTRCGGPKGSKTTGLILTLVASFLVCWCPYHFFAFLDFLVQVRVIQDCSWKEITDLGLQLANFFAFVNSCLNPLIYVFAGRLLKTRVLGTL
The experiment in a line: FLIPR Ca2+ assay on rat bradykinin 1 receptor (CHO K1 rB1R cells). The experiment is classed as cell-based. The conditions noted are these: test substance 10 μM; CHO K1 cells with B1R gene of rats; agonist Des-Arg9-bradykinin 100 nM; compared to maximum achievable inhibition. Summed up:
(§1)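 Values are percent inhibition of agonist-evoked Ca²⁺ influx, measured by Fluo-4 fluorescence peak in FLIPR relative to maximum achievable inhibition. Compound at 10 μM was preincubated 10 min on B1R-transfected CHO K1 cells before challenge with 0.5 nM Lys-Des-Arg9-bradykinin (human) or 100 nM Des-Arg9-bradykinin (rat).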

The target in experiment [2] is T2, human B1R receptor (hB1R) (Homo sapiens, UniProt P46663).
T2 construct: host or cells: CHO K1 cells
T2 sequence (P46663 1-353): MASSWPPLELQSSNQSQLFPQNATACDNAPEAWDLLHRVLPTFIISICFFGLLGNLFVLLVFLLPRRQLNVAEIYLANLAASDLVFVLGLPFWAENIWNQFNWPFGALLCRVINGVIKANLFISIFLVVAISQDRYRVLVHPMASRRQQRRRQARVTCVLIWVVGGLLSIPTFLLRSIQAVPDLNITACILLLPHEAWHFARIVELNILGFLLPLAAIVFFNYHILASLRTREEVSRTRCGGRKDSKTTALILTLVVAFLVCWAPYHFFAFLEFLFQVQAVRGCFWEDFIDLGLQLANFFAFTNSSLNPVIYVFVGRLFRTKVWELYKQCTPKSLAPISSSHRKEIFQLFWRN
The experiment in a line: FLIPR Ca2+ assay on human bradykinin 1 receptor (CHO K1 hB1R cells). The experiment is classed as cell-based. The conditions noted are these: test substance 10 μM; CHO K1 cells with human B1R gene; agonist Lys-Des-Arg9-bradykinin 0.5 nM; compared to maximum achievable inhibition. Summed up:
as §1

For the compound `COc1cc(C)c(S(=O)(=O)N(CCOCC(=O)N2CCn3c(CN4CCCC4)ccc3C2c2ccccc2)CC(C)C)c(C)c1C` (centres unmarked) [Example 92, N-isobutyl-4-methoxy-2,3,6-trimethyl-N-(2-(2-oxo-2-(1-phenyl-6-(pyrrolidin-1-ylmethyl)-3,4-dihydropyrrolo[1,2-a]pyrazin-2(1H)-yl)ethoxy)ethyl)benzene-sulfonamide], the inhibition at 10 µM in experiment [1] and in experiment [2] was 102% throughout.
For the compound `COc1cc(C)c(S(=O)(=O)N(CCOCC(=O)N2CCn3c(CN4CCCCC4)ccc3C2c2ccccc2)CC(C)C)c(C)c1C` (centres unmarked) [Example 93, N-isobutyl-4-methoxy-2,3,6-trimethyl-N-(2-(2-oxo-2-(1-phenyl-6-(piperidin-1-ylmethyl)-3,4-dihydropyrrolo[1,2-a]pyrazin-2(1H)-yl)ethoxy)ethyl)benzene-sulfonamide], the inhibition at 10 µM in experiment [1] came to 102%; in experiment [2], 103%.
The corresponding values for `COc1cc(C)c(S(=O)(=O)N(CCOCC(=O)N2CCn3c(CN4CCOCC4)ccc3C2c2ccccc2)CC(C)C)c(C)c1C` (centres unmarked) [Example 94, N-isobutyl-4-methoxy-2,3,6-trimethyl-N-(2-(2-(6-(morpholinomethyl)-1-phenyl-3,4-dihydropyrrolo[1,2-a]pyrazin-2(1H)-yl)-2-oxoethoxy)ethyl)benzene-sulfonamide] are 102% and 104%.
The corresponding values for `COc1cc(C)c(S(=O)(=O)N(CCOCC(=O)N2CCn3c(CN(C)C)ccc3C2Cc2ccccc2)CC(C)C)c(C)c1C` (centres unmarked) [Example 95, N-(2-(2-(1-benzyl-6-((dimethylamino)methyl)-3,4-dihydropyrrolo[1,2-a]pyrazin-2(1H)-yl)-2-oxoethoxy)ethyl)-N-isobutyl-4-methoxy-2,3,6-trimethylbenzene-sulfonamide] are 101% and 101%.
Consider `COc1cc(C)c(S(=O)(=O)N(CCOCC(=O)N2CCn3c(CN(C)C)ccc3C2CCc2ccccc2)CC(C)C)c(C)c1C` (centres unmarked) [Example 96, N-(2-(2-(6-((dimethylamino)methyl)-1-phenethyl-3,4-dihydropyrrolo[1,2-a]pyrazin-2(1H)-yl)-2-oxoethoxy)ethyl)-N-isobutyl-4-methoxy-2,3,6-trimethyl-benzenesulfonamide], for which the values for the inhibition at 10 µM in experiment [1] and in experiment [2] were 101% and 102%, respectively.
In the same order, the values of `CCCCC1c2ccc(CN(C)C)n2CCN1C(=O)COCCN(CC(C)C)S(=O)(=O)c1c(C)cc(OC)c(C)c1C` (centres unmarked) [Example 97, N-(2-(2-(1-butyl-6-((dimethylamino)methyl)-3,4-dihydropyrrolo[1,2-a]pyrazin-2(1H)-yl)-2-oxoethoxy)ethyl)-N-isobutyl-4-methoxy-2,3,6-trimethylbenzene-sulfonamide] are 102% and 89%.
In the same order, the values of `COc1cc(C)c(S(=O)(=O)N(CCOCC(=O)N2CCn3c(CN(C)C)ccc3C2c2cccs2)CC(C)C)c(C)c1C` (centres unmarked) [Example 98, N-(2-(2-(6-((dimethylamino)methyl)-1-(thiophen-2-yl)-3,4-dihydropyrrolo[1,2-a]pyrazin-2(1H)-yl)-2-oxoethoxy)ethyl)-N-isobutyl-4-methoxy-2,3,6-trimethyl-benzenesulfonamide] are 102% and 101%.
The corresponding values for `CCC1c2ccc(CN(C)C)n2CCN1C(=O)COCCN(CC(C)C)S(=O)(=O)c1c(C)cc(OC)c(C)c1C` (centres unmarked) [Example 99, N-(2-(2-(6-((dimethylamino)methyl)-1-ethyl-3,4-dihydropyrrolo[1,2-a]pyrazin-2(1H)-yl)-2-oxoethoxy)ethyl)-N-isobutyl-4-methoxy-2,3,6-trimethylbenzene-sulfonamide] are 101% and 102%.
Turning to `CCC1c2cccn2CCN1C(=O)COCCN(CC(C)C)S(=O)(=O)c1c(C)cc(OC)c(C)c1C` (centres unmarked) [Example 100, N-(2-(2-(1-ethyl-3,4-dihydropyrrolo[1,2-a]pyrazin-2(1H)-yl)-2-oxoethoxy)ethyl)-N-isobutyl-4-methoxy-2,3,6-trimethylbenzenesulfonamide], the inhibition at 10 µM in experiment [1] was 103%; in experiment [2], 98%.
In the same order, the values of `CCCC1c2cccn2CCN1C(=O)COCCN(CC(C)C)S(=O)(=O)c1c(C)cc(OC)c(C)c1C` (centres unmarked) [Example 101, N-isobutyl-4-methoxy-2,3,6-trimethyl-N-(2-(2-oxo-2-(1-propyl-3,4-dihydropyrrolo[1,2-a]pyrazin-2(1H)-yl)ethoxy)ethyl)benzenesulfonamide] are 102% and 91%.
The corresponding values for `COc1cc(C)c(S(=O)(=O)N(CCOCC(=O)N2CCn3cccc3C2C(C)C)CC(C)C)c(C)c1C` (centres unmarked) [Example 102, N-isobutyl-N-(2-(2-(1-isopropyl-3,4-dihydropyrrolo[1,2-a]pyrazin-2(1H)-yl)-2-oxoethoxy)ethyl)-4-methoxy-2,3,6-trimethylbenzenesulfonamide] are 102% and 96%.
In the same order, the values of `CCC1c2ccc(C)n2CCN1C(=O)COCCN(CC(C)C)S(=O)(=O)c1c(C)cc(OC)c(C)c1C` (centres unmarked) [Example 103, N-(2-(2-(1-ethyl-6-methyl-3,4-dihydropyrrolo[1,2-a]pyrazin-2(1H)-yl)-2-oxoethoxy)ethyl)-N-isobutyl-4-methoxy-2,3,6-trimethylbenzenesulfonamide] are 102% and 101%.
For the compound `COc1cc(C)c(S(=O)(=O)N(CCOCC(=O)N2CCn3c(C)ccc3C2C(C)C)CC(C)C)c(C)c1C` (centres unmarked) [Example 104, N-isobutyl-N-(2-(2-(1-isopropyl-6-methyl-3,4-dihydropyrrolo[1,2-a]pyrazin-2(1H)-yl)-2-oxoethoxy)ethyl)-4-methoxy-2,3,6-trimethylbenzenesulfonamide], the inhibition at 10 µM came out at 102% in experiment [1] and 93% in experiment [2].
The corresponding values for `COc1c(C)cc(S(=O)(=O)N(C)CCOCC(=O)N2CCn3c(CN(C)C)ccc3C2c2ccccc2)c(C)c1C` (centres unmarked) [Example 105, N-(2-(2-(6-((dimethylamino)methyl)-1-phenyl-3,4-dihydropyrrolo[1,2-a]pyrazin-2(1H)-yl)-2-oxoethoxy)ethyl)-4-methoxy-N,2,3,5-tetramethylbenzene-sulfonamide] are 100% and 100%.
In the same order, the values of `COc1c(C)cc(S(=O)(=O)N(C)CCOCC(=O)N2CCn3c(CN4CCCC4)ccc3C2c2ccccc2)c(C)c1C` (centres unmarked) [Example 106, 4-methoxy-N,2,3,5-tetramethyl-N-(2-(2-oxo-2-(1-phenyl-6-(pyrrolidin-1-ylmethyl)-3,4-dihydropyrrolo[1,2-a]pyrazin-2(1H)-yl)ethoxy)ethyl)benzene-sulfonamide] are 101% and 99%.
The corresponding values for `COc1c(C)cc(S(=O)(=O)N(C)CCOCC(=O)N2CCn3c(CN4CCCCC4)ccc3C2c2ccccc2)c(C)c1C` (centres unmarked) [Example 107, 4-methoxy-N,2,3,5-tetramethyl-N-(2-(2-oxo-2-(1-phenyl-6-(piperidin-1-ylmethyl)-3,4-dihydropyrrolo[1,2-a]pyrazin-2(1H)-yl)ethoxy)ethyl)benzene-sulfonamide] are 102% and 98%.
In the case of `COc1c(C)cc(S(=O)(=O)N(C)CCOCC(=O)N2CCn3c(CN4CCOCC4)ccc3C2c2ccccc2)c(C)c1C` (centres unmarked) [Example 108, 4-methoxy-N,2,3,5-tetramethyl-N-(2-(2-(6-(morpholinomethyl)-1-phenyl-3,4-dihydropyrrolo[1,2-a]pyrazin-2(1H)-yl)-2-oxoethoxy)ethyl)benzenesulfonamide], the inhibition at 10 µM in experiment [1] and in experiment [2] was 102% throughout.
With `COc1c(C)cc(S(=O)(=O)N(C)CCOCC(=O)N2CCn3c(CN(C)C)ccc3C2Cc2ccccc2)c(C)c1C` (centres unmarked) [Example 109, N-(2-(2-(1-benzyl-6-((dimethylamino)methyl)-3,4-dihydropyrrolo[1,2-a]pyrazin-2(1H)-yl)-2-oxoethoxy)ethyl)-4-methoxy-N,2,3,5-tetramethylbenzene-sulfonamide], the inhibition at 10 µM turned out to be 101% in experiment [1] and 102% in experiment [2].
The corresponding values for `COc1c(C)cc(S(=O)(=O)N(C)CCOCC(=O)N2CCn3c(CN(C)C)ccc3C2CCc2ccccc2)c(C)c1C` (centres unmarked) [Example 110, N-(2-(2-(6-((dimethylamino)methyl)-1-phenethyl-3,4-dihydropyrrolo[1,2-a]pyrazin-2(1H)-yl)-2-oxoethoxy)ethyl)-4-methoxy-N,2,3,5-tetramethylbenzene-sulfonamide] are 100% and 103%.
